# Reference: the supplement of paper PMC10307832
# Legend:
# Test in all cases: relative viability (nuclei count vs DMSO), 5 days (fraction); higher = more cells survive
# [1] = compound: C1=CC2=NC=CN=C2C=C1/C=C/3\C(=O)NC(=O)S3 + CS(=O)(=O)CCNCc1ccc(-c2ccc3ncnc(Nc4ccc(OCc5cccc(F)c5)c(Cl)c4)c3c2)o1 [Lapatinib] (partner 2 µM)
# Summary of the method: (§1)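 Medians of duplicate plates are given as relative viability. That measure is the nuclei count in treated wells divided by the count in vehicle wells. Counts were taken on 4× images of lung cancer cell lines in 1536-well plates, 5 days after pin-tool dosing the day after seeding with one drug alone or a fixed anchor-drug dose plus five library-drug doses (not always all listed) in √10 steps.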
# [2] = compound: CCN1CCN(c2ccc(Nc3cc(N(C)C(=O)Nc4c(Cl)c(OC)cc(OC)c4Cl)ncn3)cc2)CC1 [BGJ398] + Cc1cc(Nc2cc(N3CCN(C)CC3)nc(Sc3ccc(NC(=O)C4CC4)cc3)n2)n[nH]1 [Tozasertib] (partner 0.1 µM)
# Summary of the method: as §1
# [3] = compound: CCN1CCN(c2ccc(Nc3cc(N(C)C(=O)Nc4c(Cl)c(OC)cc(OC)c4Cl)ncn3)cc2)CC1 [BGJ398] + Cc1nc(NC(=O)N2CCC[C@H]2C(N)=O)sc1-c1ccnc(C(C)(C)C(F)(F)F)c1 [Alpelisib] (partner 2 µM)
# Summary of the method: as §1
# [4] = compound: CCN1CCN(c2ccc(Nc3cc(N(C)C(=O)Nc4c(Cl)c(OC)cc(OC)c4Cl)ncn3)cc2)CC1 [BGJ398] + O=C(c1cc(Cc2n[nH]c(=O)c3ccccc23)ccc1F)N1CCN(C(=O)C2CC2)CC1 [Olaparib] (partner 8 µM)
# Summary of the method: as §1
Cell Line,relative viability ([1]; first compound 0.02 µM),relative viability ([1]; first compound 0.06325 µM),relative viability ([1]; first compound 0.2 µM),relative viability ([1]; first compound 0.6325 µM),relative viability ([1]; first compound 2 µM),relative viability ([2]; first compound 0.01 µM),relative viability ([2]; first compound 0.03162 µM),relative viability ([2]; first compound 0.1 µM),relative viability ([2]; first compound 0.3162 µM),relative viability ([2]; first compound 1 µM),relative viability ([3]; first compound 0.01 µM),relative viability ([3]; first compound 0.03162 µM),relative viability ([3]; first compound 0.1 µM),relative viability ([3]; first compound 0.3162 µM),relative viability ([3]; first compound 1 µM),relative viability ([4]; first compound 0.01 µM),relative viability ([4]; first compound 0.03162 µM),relative viability ([4]; first compound 0.1 µM),relative viability ([4]; first compound 0.3162 µM),relative viability ([4]; first compound 1 µM)
NCI-H1437,0.791,0.825,0.806,0.715,0.572,0.414,0.418,0.418,0.4,0.427,0.96,0.989,0.955,0.991,0.972,0.687,0.629,0.587,0.607,0.666
NCI-H1651,0.793,0.899,1.05,0.718,0.685,0.732,0.629,0.633,0.575,0.581,1.04,0.952,0.961,0.918,0.939,0.183,0.169,0.188,0.165,0.162
NCI-H1666,0.468,0.51,0.693,0.643,0.499,0.702,0.619,0.606,0.587,0.558,1.01,1.08,1.01,0.922,0.909,0.759,0.77,0.81,0.725,0.679
NCI-H1734,1.02,–,1.11,0.999,0.756,0.259,0.266,0.222,0.258,0.26,0.678,0.654,0.725,0.676,0.742,0.504,0.622,0.627,0.609,0.607
NCI-H1755,0.926,0.951,1.04,0.988,0.928,0.563,0.646,0.552,0.623,0.546,0.861,0.965,1.05,0.908,0.889,0.813,0.906,0.904,0.855,0.912
NCI-H1793,0.702,0.532,0.832,0.725,0.773,0.337,0.351,0.3,0.3,0.287,0.676,–,0.955,0.696,0.549,0.828,0.721,1.02,0.824,0.739
NCI-H1915,1.01,1.1,1.02,0.928,0.971,0.446,0.438,0.433,0.404,0.416,0.981,1.05,1.1,1.08,1.05,0.231,0.285,0.252,0.256,0.246
NCI-H1944,0.834,0.966,0.801,0.735,0.486,0.237,0.244,0.229,0.27,0.273,0.689,0.816,0.899,0.805,0.845,0.432,0.416,0.425,0.385,0.445
NCI-H1975,0.707,1.24,0.907,0.84,0.791,0.774,0.758,0.695,0.5,0.415,0.601,0.642,0.745,0.667,0.61,0.809,0.856,0.887,0.825,0.781
NCI-H1993,0.784,0.776,0.846,0.829,0.743,0.526,0.546,0.651,0.581,0.616,0.689,0.623,0.642,0.746,0.7,1.02,1.08,1.01,1.02,0.997
NCI-H2009,0.873,0.965,1.03,1.03,0.802,0.732,0.761,0.733,0.734,0.697,1.13,1.19,1.11,1.17,1.09,0.614,0.759,0.697,0.718,0.682
NCI-H2023,0.872,0.735,1.01,0.764,0.466,0.309,0.345,0.301,0.232,0.255,0.576,0.644,0.534,0.586,0.579,0.486,0.465,0.513,0.463,0.503
NCI-H2085,0.725,0.635,0.785,0.755,0.713,0.961,0.877,0.74,0.732,0.669,0.96,1.01,0.93,0.975,0.921,0.759,0.773,0.711,0.693,0.796
NCI-H2087,0.859,1.24,0.941,0.98,0.931,0.219,0.255,0.24,0.26,0.277,0.99,1.17,1.05,1.19,1.18,0.46,0.744,0.574,0.609,0.613
NCI-H2126,0.625,0.898,0.758,0.739,0.361,0.892,0.825,0.911,0.927,0.868,0.78,0.746,0.735,0.766,0.853,0.953,0.864,0.964,0.865,0.918
NCI-H2170,0.278,0.271,0.272,0.251,0.246,0.804,0.714,0.687,0.694,0.78,0.815,0.756,0.938,0.734,0.853,0.605,0.584,0.633,0.57,0.553
